Experimental data: patent US9273043B2, “TRPV1 antagonists including dihydroxy substituent and uses thereof” (Purdue Pharma L.P., priority 2011, dated 2016)
Marks after values point to notes of the source that are not given here.

Tested on: FCA-induced inflammation of the rat hind paw
Experiment: Freund's complete adjuvant (FCA) model of inflammatory pain, paw withdrawal threshold
Format: in vivo
Settings: for % Reversal [mean]: rat FCA
Method: Test Animals: Each experiment uses rats weighing between 200-260 g at the start of the experiment. The rats are group-housed and have free access to food and water at all times, except prior to oral administration of a Compound of Formula (I) when food is removed for 16 hours before dosing. A control group acts as a comparison to rats treated with a Compound of Formula (I). The control group is administered the vehicle for the Compound of Formula (I). The volume of vehicle administered to the control group is the same as the volume of carrier and Compound of Formula (I) administered to the test group.
Inflammatory Pain: To assess the actions of a Compound of Formula (I) for the treatment or prevention of inflammatory pain, the Freund's complete adjuvant (“FCA”) model of inflammatory pain was used. FCA-induced inflammation of the rat hind paw is associated with the development of persistent inflammatory mechanical hyperalgesia and provides reliable prediction of the anti-hyperalgesic action of clinically useful analgesic drugs (Bartho et al., “Involvement of capsaicin-sensitive neurons in hyperalgesia and enhanced opioid antinociception in inflammation,” Naunyn-Schmiedeberg's Archives of Pharmacol. 342:666-670 (1990)). The right hind paw of each male, 6-week old Jcl:SD rat was administered a 50 μL intraplantar injection of 50% FCA (Sigma-Aldrich). 24 hour post-injection, the animal was assessed for response to noxious mechanical stimuli by determining the PWT, as described below. Rats were then administered a single injection of 0.1, 0.3, 1, 3, or 10 mg/kg of either the product prepared with Compound A155(a) and fumaric acid as described in Example 10, 20 mg/kg of an ibuprofen control (EMD Millipore Chemicals, Inc.), or vehicle as a control (0.5% weight/volume methylcellulose (400cP, Wako Pure Chemical Industries, Ltd., Osaka, Japan)/aqueous solution). […] Responses to noxious mechanical stimuli were then determined 1, 3, 5, and 7 hours post-administration. Percentage reversal of hyperalgesia for each animal was defined as: […]
With the exception of the controls (i.e., ibuprofen, vehicle) where the student's t-test was used, Dunnett's test was conducted for the % reversal. In either instance, values with p<0.05 were considered to be statistically significant. The % reversal results for administration of the product prepared with Compound A155(a) and fumaric acid as described in Example 10 and the respective controls are presented in Table 7.
Response to Mechanical Stimuli as an Assessment of Mechanical Hyperalgesia: The paw pressure assay was used to assess mechanical hyperalgesia. For this assay, hind paw withdrawal thresholds (PWT) to a noxious mechanical stimulus were determined using an analgesymeter (Model 37215, commercially available from Ugo Basile of Italy) as described in Stein, “Unilateral Inflammation of the Hindpaw in Rats as a Model of Prolonged Noxious Stimulation: Alterations in Behavior and Nociceptive Thresholds,” Pharmacol. Biochem. and Behavior 31:451-455 (1988). The maximum weight that could be applied to the hind paw was set at 250 g and the end point was taken as complete withdrawal of the paw. PWT was determined once for each rat at each time point and either only the affected (ipsilateral) paw was tested, or both the ipsilateral and contralateral (non-injured) paw were tested.

## CC1CN(c2ncc(C(O)CO)cc2F)CCN1C(=O)Nc1nc2cc(F)ccc2s1.O=C(O)C=CC(=O)O (stereo not drawn)
Rat FCA model
  minimal effective dose: 0.1 mg/kg
0.1 mg/kg, 1 h after administration
  % Reversal [mean]: 31.9** %
0.1 mg/kg, 1 h after administration, listed as product prepared with Compound A155(a) and fumaric acid
  % Reversal [mean]: 31.9%
0.1 mg/kg, 3 h after administration
  % Reversal [mean]: 37.8** %
0.1 mg/kg, 3 h after administration, listed as product prepared with Compound A155(a) and fumaric acid
  % Reversal [mean]: 37.8%
0.1 mg/kg, 5 h after administration
  % Reversal [mean]: 31.3** %
0.1 mg/kg, 5 h after administration, listed as product prepared with Compound A155(a) and fumaric acid
  % Reversal [mean]: 31.3%
0.1 mg/kg, 7 h after administration
  % Reversal [mean]: 23.6** %
0.1 mg/kg, 7 h after administration, listed as product prepared with Compound A155(a) and fumaric acid
  % Reversal [mean]: 23.6%
0.3 mg/kg, 1 h after administration
  % Reversal [mean]: 65.0** %
0.3 mg/kg, 1 h after administration, listed as product prepared with Compound A155(a) and fumaric acid
  % Reversal [mean]: 65.0%
0.3 mg/kg, 3 h after administration
  % Reversal [mean]: 60.2** %
0.3 mg/kg, 3 h after administration, listed as product prepared with Compound A155(a) and fumaric acid
  % Reversal [mean]: 60.2%
0.3 mg/kg, 5 h after administration
  % Reversal [mean]: 54.1** %
0.3 mg/kg, 5 h after administration, listed as product prepared with Compound A155(a) and fumaric acid
  % Reversal [mean]: 54.1%
0.3 mg/kg, 7 h after administration
  % Reversal [mean]: 39.4** %
0.3 mg/kg, 7 h after administration, listed as product prepared with Compound A155(a) and fumaric acid
  % Reversal [mean]: 39.4%
1 mg/kg, 1 h after administration
  % Reversal [mean]: 79.4** %
1 mg/kg, 3 h after administration
  % Reversal [mean]: 84.1** %
1 mg/kg, 5 h after administration
  % Reversal [mean]: 78.2** %
1 mg/kg, 7 h after administration
  % Reversal [mean]: 70.5** %
3 mg/kg, 1 h after administration
  % Reversal [mean]: 80.3** %
3 mg/kg, 1 h after administration, listed as product prepared with Compound A155(a) and fumaric acid
  % Reversal [mean]: 80.3%
3 mg/kg, 3 h after administration
  % Reversal [mean]: 87.9** %
3 mg/kg, 3 h after administration, listed as product prepared with Compound A155(a) and fumaric acid
  % Reversal [mean]: 87.9%
3 mg/kg, 5 h after administration
  % Reversal [mean]: 86.6** %
3 mg/kg, 5 h after administration, listed as product prepared with Compound A155(a) and fumaric acid
  % Reversal [mean]: 86.6%
3 mg/kg, 7 h after administration
  % Reversal [mean]: 97.3** %
3 mg/kg, 7 h after administration, listed as product prepared with Compound A155(a) and fumaric acid
  % Reversal [mean]: 97.3%
10 mg/kg, 1 h after administration
  % Reversal [mean]: 102.5** %
10 mg/kg, 3 h after administration
  % Reversal [mean]: 94.1** %
10 mg/kg, 5 h after administration
  % Reversal [mean]: 97.3** %
10 mg/kg, 7 h after administration
  % Reversal [mean]: 93.1** %
